Laboratory results published in publication PMC7588595, “Small-molecule active pharmaceutical ingredients of approved cancer therapeutics inhibit human aspartate/asparagine-β-hydroxylase” (Bioorganic & Medicinal Chemistry, 2020).

Target: T1, human AspH (His6-AspH315–758) (Homo sapiens, UniProt Q12797)
T1 construct: N-Terminally His6-tagged human AspH315–758 (His6-AspH315–758) was produced in Escherichia coli BL21 (DE3) cells; made in house; host or cells: Escherichia coli BL21 (DE3), pET-28a(+) vector
T1 sequence (Q12797 315-758): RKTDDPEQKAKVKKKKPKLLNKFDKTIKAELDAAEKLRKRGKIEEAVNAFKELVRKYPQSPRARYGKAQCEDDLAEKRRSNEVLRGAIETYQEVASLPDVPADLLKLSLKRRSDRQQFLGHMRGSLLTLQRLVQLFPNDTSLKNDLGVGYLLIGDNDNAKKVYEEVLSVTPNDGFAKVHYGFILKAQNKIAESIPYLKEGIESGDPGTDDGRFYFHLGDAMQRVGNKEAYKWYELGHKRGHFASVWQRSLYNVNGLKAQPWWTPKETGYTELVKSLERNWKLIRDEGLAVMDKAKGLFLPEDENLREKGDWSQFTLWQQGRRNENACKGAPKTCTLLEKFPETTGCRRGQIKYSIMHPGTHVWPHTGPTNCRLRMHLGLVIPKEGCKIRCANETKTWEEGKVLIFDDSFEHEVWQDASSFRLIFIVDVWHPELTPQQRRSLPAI
Experiment: SPE-MS AspH inhibition assay (hFX-CP101-119 substrate hydroxylation)
Format: biochemical
Conditions: AspH-inhibitor screening; for Plate 1 (% inhibition): 384-well Plate 1; for Plate 1 (% conversion): 384-well Plate 1, substrate conversion; for Plate 1-duplicate (% conversion): substrate conversion

Plate 1 (% inhibition) [%] | Plate 1 (% conversion) [%] | Plate 1-duplicate (% inhibition) [%] | Plate 1-duplicate (% conversion) [%] | Compound
7.83 | 46.14 | 2.76 | 50.67 | Cc1ccc(-n2nc(C(C)(C)C)cc2NC(=O)Nc2ccc(OCCN3CCOCC3)c3ccccc23)cc1 [BIRB 796 (Doramapimod)]
1.72 | 48.96 | -1.07 | 52.57 | Nc1cc(C(F)(F)F)c(-c2cc(N3CCOCC3)nc(N3CCOCC3)n2)cn1 [BKM-120_Buparlisib]
-9.55 | 54.16 | -14.91 | 59.44 | CCn1c(C(=O)N(C2CC2)C2CC2)cc2c3c(ncn3C)c(Nc3cc(C)n(C)n3)nc21 [BMS-911543]
97.27 | 4.83 | 96.98 | 3.94 | O=C(/C=C/c1cccc(S(=O)(=O)Nc2ccccc2)c1)NO [Belinostat (PXD101)]
-5.40 | 52.24 | -0.39 | 52.24 | C=C(c1ccc(C(=O)O)cc1)c1cc2c(cc1C)C(C)(C)CCC2(C)C [Bexarotene]
-1.86 | 50.61 | -1.99 | 53.03 | CCNC(=O)CCC/C=C\C[C@@H]1[C@@H](/C=C/[C@@H](O)CCc2ccccc2)[C@H](O)C[C@@H]1O [Bimatoprost]
6.81 | 46.61 | 7.89 | 48.13 | CC(C)C[C@H](NC(=O)[C@H](Cc1ccccc1)NC(=O)c1cnccn1)B(O)O [Bortezomib]
-48.53 | 72.16 | -50.33 | 77.00 | COc1cc(Nc2c(C#N)cnc3cc(OCCCN4CCN(C)CC4)c(OC)cc23)c(Cl)cc1Cl [Bosutinib]
6.97 | 46.53 | 3.72 | 50.20 | Cc1cc2c(F)c(Oc3ncnn4cc(OC[C@@H](C)O)c(C)c34)ccc2[nH]1 [Brivanib]
14.61 | 43.00 | 8.69 | 47.73 | CS(=O)(=O)OCCCCOS(C)(=O)=O [Busulfan]
5.28 | 47.31 | 3.08 | 50.52 | CC[C@H](Nc1ncnc2[nH]cnc12)c1nc2cccc(F)c2c(=O)n1-c1ccccc1 [CAL-101]
-15.11 | 56.73 | -6.96 | 55.49 | CN1CCN(c2ccc3nc(-c4c(N)c5c(F)cccc5[nH]c4=O)[nH]c3c2)CC1 [CHIR-258 (Dovitinib)]
-9.77 | 54.26 | -16.99 | 60.47 | CC(C)C[C@@H](C(=O)N[C@H](C(=O)OC1CCCC1)c1ccccc1)[C@H](O)C(=O)NO [CHR 2797_Tosedostat]
4.32 | 47.76 | 4.57 | 49.78 | CC(=O)Nc1ccc(C(=O)Nc2ccccc2N)cc1 [CI-994_Tacedinaline]
-2.25 | 50.79 | -2.45 | 53.26 | O=C(O)CCCCC(CCSCc1ccccc1)SCc1ccccc1 (stereo not shown) [CPI-613]
70.67 | 17.12 | 72.15 | 16.26 | C#Cc1cccc(Nc2ncnc3cc(OC)c(OCCCCCCC(=O)NO)cc23)c1 [CUDC-101]
5.72 | 47.11 | 4.84 | 49.64 | N#CCNC(=O)c1ccc(-c2ccnc(Nc3ccc(N4CCOCC4)cc3)n2)cc1 [CYT-387_Momelotinib]
-8.77 | 53.80 | -20.49 | 62.20 | CO[C@H]1C(=O)[C@]2(C)[C@@H](OC)C[C@H]3OC[C@@]3(OC(C)=O)[C@H]2[C@H](OC(=O)c2ccccc2)[C@]2(O)C[C@H](OC(=O)[C@H](O)[C@@H](NC(=O)OC(C)(C)C)c3ccccc3)C(C)=C1C2(C)C [Cabazitaxel]
-58.69 | 76.85 | -55.96 | 79.80 | C=CC(=O)Nc1cc2c(Nc3ccc(F)c(Cl)c3)ncnc2cc1OCCCN1CCOCC1 [Canertinib]
3.89 | 47.95 | 10.65 | 46.76 | CCCCCOC(=O)Nc1nc(=O)n([C@@H]2O[C@H](C)[C@@H](O)[C@H]2O)cc1F [Capecitabine]
-2.16 | 50.75 | -9.02 | 56.51 | CC(C)C[C@H](NC(=O)[C@H](CCc1ccccc1)NC(=O)CN1CCOCC1)C(=O)N[C@@H](Cc1ccccc1)C(=O)N[C@@H](CC(C)C)C(=O)[C@@]1(C)CO1 [Carfilzomib]
-8.28 | 53.57 | -15.35 | 59.65 | Cc1ccc(-c2cc(C(F)(F)F)nn2-c2ccc(S(N)(=O)=O)cc2)cc1 [Celecoxib]
-42.78 | 69.51 | -39.63 | 71.70 | Cc1cc(Nc2ncc(Cl)c(Nc3ccccc3S(=O)(=O)C(C)C)n2)c(OC(C)C)cc1C1CCNCC1 [Ceritinib]

Compound | Plate 1 (% inhibition) [%] | Plate 1 (% conversion) [%] | Plate 1-duplicate (% inhibition) [%] | Plate 1-duplicate (% conversion) [%]
Cl.Cn1c(CCCC(=O)O)nc2cc(N(CCCl)CCCl)ccc21 [Bendamustine hydrochloride] | 2.89 | 48.41 | 4.93 | 49.60
CC(O)(CS(=O)(=O)c1ccc(F)cc1)C(=O)Nc1ccc(C#N)c(C(F)(F)F)c1 (stereo not shown) [Bicalutamide] | -2.20 | 50.76 | 0.00746 | 52.04
CC[C@@]1(O)C(=O)OCc2c1cc1n(c2=O)Cc2cc3ccccc3nc2-1 [Camptothecin] | 4.52 | 47.66 | 4.34 | 49.89
N.N.O=C([O-])C1(C(=O)[O-])CCC1.[Pt+2] [Carboplatin] | 3.32 | 48.22 | 9.11 | 47.52
O=NN(CCCl)C(=O)NCCCl [Carmustine] | 1.59 | 49.02 | 7.94 | 48.11
